Measurements as given in article PMC6264186, “Development of a Highly Sensitive and Specific Immunoassay for Determining Chrysoidine, A Banned Dye, in Soybean Milk Film” (Molecules, 2011).
In brackets after ≈: the same amount, converted by molar mass.

Assays:
[1] = test system: polyclonal Ab 2 (antibody to chrysoidine, from Hapten 2); assay: indirect competitive ELISA (icELISA) with polyclonal Ab 2; type: binding, New Zealand white rabbits; conditions: for IC50 / Cross-reactivity: polyclonal Ab 2, coating antigen Hapten 1-OVA; for Cross-reactivity: CR = IC50(chrysoidine)/IC50(interferent) x 100
Experimental: Specificity of the optimized assay was tested by measuring the cross-reactivity using a group of structurally related dyes. Twenty-four compounds were selected for testing the cross-reactivity (CR) (Table 1). The CR was calculated as follows: CR(%) = [IC50(chrysoidine) / IC50(interferent)] × 100.

[2] = test system: polyclonal Ab 2 (antibody to chrysoidine, from Hapten 2); assay: as above; type: binding, New Zealand white rabbits; conditions: coating antigen Hapten 2-OVA 17 ng/mL, Ab 2 dilution 10000 (homologous)
[3] = test system: Ab 1 (antibody to chrysoidine, from Hapten 1); assay: indirect competitive ELISA (icELISA) with polyclonal Ab 1
Experimental: Checkerboard assays, in which antibodies were titrated against various amounts of the coating antigen, were used to measure the reactivity of antibodies and to select an appropriate antigen coating and antibody dilutions for competitive indirect assays. […] The concentrations of the antibodies and the coating antigen chosen were further optimized.
The procedure for the competitive assay was as follows. Microtiter plates were coated with hapten-OVA (100–1000 ng/mL, 100 µL/well) in carbonate-bicarbonate buffer (50 mM, pH 9.6) by overnight incubation at 4 °C. The plates were blocked with blocking solution by incubation for 3 h. Serial dilution of the analyte in methanol-PBST (1:9, v:v, 50 µL/well) were added, followed by 50 µL/well of antibody diluted (1/1,000–1/10,000) with PBST solution. After incubation for about 30–60 min, 100 µL/well of a diluted (1/10,000) goat anti-rabbit IgG-HRP was added. The mixture was incubated for 60 min, and 100 µL/well of a TMB solution was added. The reaction was stopped after an appropriate time (typically 8 min) by adding 10% (v:v) H2SO4 (50 µL), and the absorbance was read at 450 nm.

[4] = coating antigen Hapten 1-OVA 20 ng/mL, Ab 1 dilution 8000 (homologous)
[5] = coating antigen Hapten 2-OVA 20 ng/mL, Ab 1 dilution 20000 (heterologous)
[6] = coating antigen Hapten 1-OVA 20 ng/mL, Ab 2 dilution 4000 (heterologous)

| IC50 ([1]; class symbol ND) [µM] | Compound | Cross-reactivity [1] [%] | further results |
| --- | --- | --- | --- |
| > 13.3 | Cc1c(C(=O)O)c(O)cc2c1C(=O)c1c(O)c([C@@H]3O[C@H](CO)[C@@H](O)[C@H](O)[C@H]3O)c(O)c(O)c1C2=O [Carminic acid] | ≤0.01 | – |
| > 13.3 | Oc1ccc2ccccc2c1/N=N/c1ccccc1 [Sudan Red I] | ≤0.01 | – |
| > 13.3 | O=C(O)C1=NN(c2ccc(S(=O)(=O)O)cc2)C(=O)C1/N=N/c1ccc(S(=O)(=O)O)cc1 (centres unmarked) [Tartrazine] | ≤0.01 | – |
| > 13.3 | O=C1OC2(c3ccccc31)c1cc(I)c(O)c(I)c1Oc1c2cc(I)c(O)c1I [Erythrosine] | ≤0.01 | – |
| > 13.3 | O=C1/C(=C2\Nc3ccccc3C2=O)Nc2ccccc21 [Indigo] | ≤0.01 | – |
| > 13.3 | Nc1nc(N)nc(N)n1 [Melamine] | ≤0.01 | – |
| > 13.3 | O=S(=O)(O)c1ccc(/N=N/c2ccc(Nc3ccccc3)cc2)cc1 [Orange yellow] | ≤0.01 | – |
| > 13.3 | O=S(=O)(O)c1ccc(/N=N/c2c(O)ccc3cc(S(=O)(=O)O)ccc23)cc1 [Sunset yellow] | ≤0.01 | – |
| > 13.3 | O=C1OC2(c3ccc(Cl)cc3Oc3cc(Cl)ccc32)c2ccccc21 [Reddish orange] | ≤0.01 | – |

Second part, the compound before the results:

| Compound | IC50 ([1]; class symbol ND) [µM] | Cross-reactivity [1] [%] | further results |
| --- | --- | --- | --- |
| Nc1ccc(N=Nc2ccc(C(=O)O)cc2)c(N)c1 [Hapten1, 4-((2,4-Diaminophenyl)diazenyl)benzoic acid] | – | 169.8 | IC50 [1]: 0.00078 µM; Cross-reactivity ([1]; listed as Hapten 1): 170% |
| O=S(=O)(O)c1ccc2c(/N=N/c3ccc(S(=O)(=O)O)c4ccccc34)c(O)c(S(=O)(=O)O)cc2c1 [Amaranth] | > 13.3 | ≤0.01 | – |
| Cc1ccc([N+](=O)[O-])cc1N [Scarlet Base G] | > 13.3 | ≤0.01 | – |
| Nc1ccc(/N=N/c2ccccc2)c(N)c1 [Chrysoidine] | – | 100.0 | IC50 [2]: 10.6 ng/mL (≈ 0.0499 µM); LOD (10% inhibitory concentration) [2]: 3.8 ng/mL; IC50 [3, 4]: 7.4 ng/mL (≈ 0.0349 µM); LOD (10% inhibitory concentration) [3, 4]: 0.8 ng/mL; IC50 [3, 5]: 1.6 ng/mL (≈ 0.00754 µM); LOD (10% inhibitory concentration) [3, 5]: 0.4 ng/mL; IC50 (50% inhibitory concentration) [1, 6]: 0.33 ng/mL (≈ 0.00155 µM); LOD (10% inhibitory concentration) [1, 6]: 0.04 ng/mL; LOD (10% inhibitory concentration) ([1]; coating antigen Hapten 1-OVA 20 ng/mL, Ab 2 dilution 4000 (heterologous), listed as chrysoidine): ≤ 0.04 ng/mL; limit of quantitation (LOQ, 20%-80% inhibitory concentration) ([1]; coating antigen Hapten 1-OVA, Ab 2 (heterologous)): 0.09 to 4.9 ng/mL; IC50 [1]: 0.00133 µM |
| COc1cc(S(=O)(=O)O)c(C)cc1/N=N/c1c(O)ccc2cc(S(=O)(=O)O)ccc12 [Allura Red] | > 13.3 | ≤0.01 | – |
| Acid Red 94 | > 13.3 | ≤0.01 | – |
| Carmine | > 13.3 | ≤0.01 | – |
| Nc1ccc(N=Nc2ccc(CC(=O)O)cc2)c(N)c1 [Hapten2, 2-(4-((2,4-Diaminophenyl)diazenyl)phenyl)acetic acid] | – | 127.0 | IC50 [1]: 0.00105 µM; Cross-reactivity ([1]; listed as Hapten 2): 127% |
| CN(C)c1ccc(C(=N)c2ccc(N(C)C)cc2)cc1 [Auramine O] | – | 0.2 | IC50 [1]: 0.798 µM |
| O=[N+]([O-])c1ccc(N=Nc2c(O)ccc3ccccc23)cc1 [1-(4-nitrophenyl-azo)-2-naphthol] | > 13.3 | ≤0.01 | – |
| CCN(Cc1cccc(S(=O)(=O)O)c1)c1ccc(C(=C2C=CC(=[N+](CC)Cc3cccc(S(=O)(=O)O)c3)C=C2)c2ccc(O)cc2S(=O)(=O)[O-])cc1 [Brilliant blue-85] | > 13.3 | ≤0.01 | – |
| O=S(=O)(O)c1ccc(/N=N/c2cc(S(=O)(=O)O)c3ccccc3c2O)c2ccccc12 [Azorubine] | > 13.3 | ≤0.01 | – |
| O=C(O)C1=NN(c2ccc(S(=O)(=O)O)cc2)C(=O)C1/N=N/c1ccc(S(=O)(=O)O)cc1 (centres unmarked) [Acid Yellow 23] | – | 0.04 | IC50 [1]: 3.05 µM |
| O=S(=O)(O)c1ccc(/N=N/c2ccc(O)c3ccccc23)cc1 [Orangeim] | – | 0.1 | IC50 [1]: 1.12 µM; Cross-reactivity ([1]; listed as orangeim): 0.12% |
